Results published in publication PMC11725581, “Developing novel Lin28 inhibitors by computer aided drug design” (Cell Death Discovery, 2025).
Residue numbers refer to the chain shown, from its start.

Key:
[1] = tested on: Lin28b protein expression in DuNE cells; experiment: Lin28b protein levels by immunoblotting in DuNE cells; format: cell-based; conditions: 20uM, 72 h
Description: We further tested whether the 13 candidate compounds could penetrate the cell membrane, endure cell-mediated metabolism and excretion, and inhibit Lin28 activities inside cancer cells. […] Since let-7 and Lin28b mutually regulate each other’s expression, increased let-7 expression by Lin28 inhibitors would suppress Lin28b protein levels.
Fig. 3 Validate CADD predicted compounds by cell-based assays. A, B DuNE cells were treated with Lin28b inhibitors for 72 h. Let-7d RNA levels were measured by real-time qPCR (A) and Lin28b protein levels were measured by immunoblotting (B). […] Cell proliferation rates were measured by Incucyte. D Overlay of 1H-15N HSQC spectra for Lin28b-ZKD (black), Lin28b-ZKD + Ln15 (orange), and Lin28b-ZKD + Ln268 (blue). Ligands were added in a 20:1 molar ratio. Approximately 20 residues are seen to shift (from black to orange/blue), with ca. 5 resonances disappearing for Lin28b-ZKD in the presence of Ln268. E Overlay of the 20 NMR models for 2CQF (gray) and 2LI8 (blue) showing the rearrangement of residues 137–160 in going from Lin28b-ZKD alone to the conformation with RNA present. The conformation of Lin28b-ZKD in the presence of the ligands described herein might resemble that of 2LI8, but with a larger conformational spread. All results are presented as the mean ± SD.
Total RNA was extracted by TRIZOL reagent (Invitrogen), treated with deoxyribonuclease and reversely transcribed by random hexamers and superscript II (Invitrogen). Real-time qPCR was performed on the ABI PRISM 7900 HT system (Applied Biosystems) using the FastStart Universal SYBR Green Master mix (Roche) following standard protocol as we reported. All real-time qPCR assays were carried out in triplicates from three independent cDNA syntheses. For immunoblotting assays, whole cell lysis was extracted by a buffer containing 50mM of Tris pH8.0, 150mM of NaCl, 1% NP40, 0.5% sodium deoxycholate, 0.1% SDS and proteinase and phosphatase inhibitors (Roche). Protein lysis separated by SDS-PAGE, transferred to polyvinylidene difluoride membrane, and blotted by specific antibodies.

Lin28b ZKD [2] = molecular target: T1, Lin28b ZKD (Homo sapiens, UniProt Q6ZN17); experiment: EMSA, Lin28b ZKD:pre-let-7d complex formation; format: binding; conditions: 1 μM Lin28 ZKD, 10 nM IRDye800-labeled pre-let-7d probe
T1 sequence (Q6ZN17 127-166 limits assumed): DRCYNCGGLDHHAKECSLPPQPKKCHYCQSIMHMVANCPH
Description: We next validated the newly developed compounds using EMSA, a non-florescent-based assay to detect Lin28b ZKD:pre-let-7 complex formation. Similar to the FP assays, we first optimized the experimental conditions by titrating: (1) IRDye800-labeled pre-let-7d RNA probe, (2) Lin28b ZKD protein, and (3) non-labeled pre-let-7 probe as a competitor (Fig. 2C). For the validation experiments, 1 μM Lin28 ZKD and 10 nM of IRDye800-labeled pre-let-7d probe were mixed with each candidate compound. Compounds C1632 and Ln15 were used as control Lin28 inhibitors, respectively. […] Regardless, we use these two biochemical assays to shortlist the most promising compounds for further characterization. […] While our inhibitors directly target the Lin28 ZKD, it is unclear whether C1632 may bind to domains other than the ZKD or allosterically disrupt Lin28’s capacity to bind its RNA substrates.
EMSA followed the standard protocols we published. An IRDye800CWN-labeled pre-Let-7d RNA probe (5’-IRD800CWN-[…]-3’) was purchased from IDT (Coralville, IA, USA). Lin28a or Lin28b proteins were incubated with 300 nM of probe in a standard 20 uL EMSA reaction in a reaction buffer containing 20 mM HEPES-NaOH, pH 7.4, 2 mM DTT, 3 mM MgCl2, 0.05% NP-40, protease inhibitors, and 0.1 ug poly[dI:dC]. After incubation for 30 min at 37 °C, reactions were loaded onto 4% non-denatured polyacrylamide gel in 0.5× TBE buffer. The RNA oligo bands were visualized by using the Li-Cor Odyssey 9120 Infrared Imaging System.

Lin28b ZKD [3] = molecular target: T1, Lin28b ZKD; experiment: Fluorescence polarization (FP) assay, Lin28b ZKD:pre-let-7d interaction; format: binding; conditions: for activity in protein-based assays: FP / EMSA; for IC50: 10 nM pre-let-7d probe, 1 μM Lin28b ZKD
Description: (§1) We conducted two biochemical assays, FP and EMSA, to validate the predicted compounds. To optimize the FP assays, we performed a series of titrations using: (1) FAM-labeled pre-let-7d RNA probe, (2) Lin28b ZKD protein, and (3) non-labeled pre-let-7 probe as a competitor (Fig. 2A). These assays yielded the optimal concentrations required for the subsequent FP validation assays, namely 10 nM for the pre-let-7d probe and 1 μM for Lin28b ZKD protein. The FP signal from the free probe was set as 0%, while the signal from the probe-ZKD complex in the absence of compounds was set as 100%. C1632 was used as a control Lin28 inhibitor (Fig. 2B). […] Since the docking pocket is almost identical between Lin28a and Lin28b homologs, we repeated the FP assays using Lin28a ZKD (Figure S2).
The fluorescein amidites (FAM)-tagged pre-Let-7d probe with the sequence of […] was purchased from Integrated DNA Technologies (IDT). The probe at the concentrations ranging from 1 nM to 50 uM was incubated with Lin28B (ZKD) or Lin28 (CSD+ZKD) to a final volume of 30 uL at room temperature for 20 min. To read the fluorescence, a TECAN 500 machine was used. Fluorescence polarization was calculated using the following equation:
P=(Fparrallel−Fperpendicular)/(Fparrallel+FperpendicularP)
where P is the fluorescence polarization reading, F parallel is the fluorescence intensity acquired from the parallel excitation plane, and F perpendicular is the fluorescence intensity acquired from the perpendicular direction of the excitation plane. The total fluorescence intensity is estimated using the following equation:
F=Fparallel+2FperpendicularF.
(§2) All the raw FP signal data from the TECAN 500 FP results were analyzed using Prism 8.0 (GraphPad, San Diego, CA, USA); normalized curves were plotted and IC50 values were estimated. All FP data were repeated three to five times.
Figure S1. Lin28b ZKD protein was incubated with the indicated compounds at the concentration of 0, 0.1, 0.2, 0.5, 1, 2, 5, 10, 20, 50, 100, and 200uM. FP signals were measured and plotted relative to that from vehicle.

Lin28a ZKD = molecular target: T2, Lin28a ZKD (Homo sapiens, UniProt Q9H9Z2); experiment: Fluorescence polarization (FP) assay, Lin28a ZKD:pre-let-7 interaction; format: binding; conditions: 0-200 uM
T2 sequence (Q9H9Z2 137-176 limits assumed): T1 sequence (Q6ZN17 127-166 limits assumed) with S17K, Y27F, M32S, N37S, H40L
Description: as §1
The fluorescein amidites (FAM)-tagged pre-Let-7d probe with the sequence of […] was purchased from Integrated DNA Technologies (IDT). The probe at the concentrations ranging from 1 nM to 50 uM was incubated with Lin28B (ZKD) or Lin28 (CSD+ZKD) to a final volume of 30 uL at room temperature for 20 min. To read the fluorescence, a TECAN 500 machine was used. Fluorescence polarization was calculated using the following equation: […]
as §2
Figure S2. Lin28a ZKD protein was incubated with the indicated compounds at the concentration of 0, 0.1, 0.2, 0.5, 1, 2, 5, 10, 20, 50, 100, and 200uM. FP signals were measured and plotted relative to that from vehicle.

| Structure (SMILES) | effect on Lin28b protein expression [1] | inhibition of Lin28b ZKD:pre-let-7d complex formation (EMSA) (Lin28b ZKD [2]) | activity in protein-based assays (Lin28b ZKD [3]) | potency in blocking the Lin28a ZKD:pre-let-7 interaction (FP) relative to parents (Lin28a ZKD) | also measured |
| --- | --- | --- | --- | --- | --- |
| Cc1cccc(Nc2csc(=O)[nH]2)c1O [Ln269] | suppressed Lin28b protein expression | capable of inhibiting Lin28:pre-let-7d complex formation in a dose-dependent manner | – | – | – |
| CC(C)(C)c1ccc(O)c(Nc2cccc(=O)[nH]2)c1 [Ln250] | – | – | – | – | FP potency relative to Ln15 (Lin28b ZKD [3]; FP assays used for SAR guided design): outperformed Ln15 |
| O=c1cccc(Nc2ccccc2O)[nH]1 [Ln296] | – | – | inactive | – | – |
| Cc1c(F)c(O)c(F)c2c(=O)[nH]c(-c3cccc(=O)[nH]3)nc12 [Ln273] | suppressed Lin28b protein expression | – | – | – | – |
| O=c1cccc(Nc2ccncc2O)[nH]1 [Ln300] | suppressed Lin28b protein expression | capable of inhibiting Lin28:pre-let-7d complex formation in a dose-dependent manner | active | more potent than Ln15 and Ln115 | – |
| CN(C)c1ccc(=O)[nH]c1-c1nc(=O)c2cc(O)c(F)cc2[nH]1 [Ln277] | – | – | inactive | – | – |
| O=c1cccc(Nc2ncc(O)cc2O)[nH]1 [Ln298] | suppressed Lin28b protein expression | capable of inhibiting Lin28:pre-let-7d complex formation in a dose-dependent manner | active | more potent than Ln15 and Ln115 | – |
| Cc1cc(O)cc2c(=O)nc(-c3nccc(=O)[nH]3)[nH]c12 [Ln282] | – | – | inactive | – | – |
| O=c1cccc(Nc2cccc(O)c2O)[nH]1 [Ln306] | – | capable of inhibiting Lin28:pre-let-7d complex formation in a dose-dependent manner | – | more potent than Ln15 and Ln115 | – |
| Cc1cc2[nH]c(-c3cccc(=O)[nH]3)nc(=O)c2cc1O [Ln274] | – | capable of inhibiting Lin28:pre-let-7d complex formation in a dose-dependent manner | – | – | – |
| O=c1cccc(Nc2ccc(O)cc2O)[nH]1 [Ln295] | – | – | inactive | – | – |
| Cc1cc(-c2nc(=O)c3cc(O)c(F)cc3[nH]2)[nH]c(=O)c1 [Ln275] | – | – | inactive | – | – |
| O=c1cccc(-c2nc(=O)c3cc(O)c(F)cc3[nH]2)[nH]1 [Ln115] | – | – | – | – | IC50 (Lin28b ZKD [3]): 21 µM |
| CC(C)c1cc(Nc2csc(=O)[nH]2)c(O)cc1O [Ln267] | suppressed Lin28b protein expression | – | higher potency in FP assays | more potent than Ln15 and Ln115 | IC50 (Lin28b ZKD [3]): 4.67 µM |
| Cc1c(O)cnc(Nc2cccc(=O)[nH]2)c1O [Ln302] | – | capable of inhibiting Lin28:pre-let-7d complex formation in a dose-dependent manner | – | more potent than Ln15 and Ln115 | IC50 (Lin28b ZKD [3]): 3.63 µM |
| O=c1cccc(-c2nc3cc(F)c(O)c(F)c3c(=O)[nH]2)[nH]1 [Ln272] | suppressed Lin28b protein expression | – | – | more potent than Ln15 and Ln115 | – |
| Cn1cnc2c(=O)[nH]c(-c3nc(=O)c4cc(O)c(F)cc4[nH]3)cc21 [Ln279] | – | capable of inhibiting Lin28:pre-let-7d complex formation in a dose-dependent manner | active | more potent than Ln15 and Ln115 | – |
| O=c1cccc(-c2nc(=O)c3cc(O)c(CO)cc3[nH]2)[nH]1 [Ln276] | – | capable of inhibiting Lin28:pre-let-7d complex formation in a dose-dependent manner | – | – | – |
